What all share (assay): growth of human tumour cells (NCI), 48 h
The subject of test [1] is UACC-62 melanoma.
Test [2] relates to HOP-62 NSCLC.
The subject of test [3] is HCC-2998 colon.
The subject of test [4] is 786-0 renal.
Test [5] deals with TK-10 renal.
Test [6] deals with HOP-92 NSCLC.
Test [7] concerns NCI-H522 lung.
The subject of test [8] is MOLT-4 leukemia.
Test [9] has as its system DU-145 prostate.

Each structure is given as a SMILES string.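 Following 48 hours of exposure in 96-well plates, responses at five concentrations were used to interpolate endpoints linearly. At the GI50, growth is halved. TGI marks complete inhibition of growth.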

With `CC(=O)CC(=O)CCCC(=O)Nc1ccc(Cl)cc1Cl`, the TGI in test [1], in [2], in [3], in test [4], in [5] and in test [6] was above 100 µM in each case. The TGI in test [7] and in [8] was above 100 µM each time.

As for `N#CC12CCC(O)C(CC1)C2=O` (stereo unspecified), the TGI in test [1], in test [2], in [3], in [4], in [5] and in [7] was above 100 µM in each case. Moreover, the TGI in [8] is above 100 µM.

Regarding `COc1cccc2c(Nc3ccc(C(=O)NCCNCCO)cc3)cc(-c3ccccc3)nc12`, the GI50 was 62.4 µM in test [1]; 35.4 µM in [2]; 49.6 µM in test [3]; 33.5 µM in test [4]; 30.2 µM in test [5]; 58.7 µM in [9]. For the same compound, the GI50 is 16 µM in test [6] and 20.3 µM in test [7]. The TGI in [1], in [2], in test [3], in test [4], in [5] and in [9] was above 100 µM each time. Also, the values for the TGI in test [6] and in [7] were 51.4 µM and 53.8 µM, respectively.

With `O=NN(CCCl)C(=O)NCc1ccc[n+]([O-])c1`, the TGI in test [1], in test [2], in [3], in [4], in test [5] and in test [6] was above 100 µM throughout. In test [8], this compound had a TGI above 100 µM.

Take `CC1(c2ccccc2)CC12C(=O)NC(=O)NC2=O` (stereo unspecified): the TGI in [1], in test [2], in test [3], in test [4], in test [5] and in test [6] was above 100 µM throughout. Also, the TGI in test [7] and in [8] was above 100 µM throughout.

For the compound `O=C1C2c3[nH]c4ccccc4c3C3CCSCC3C2C(=O)N1c1ccccc1` (stereo unspecified), the TGI in [1], in [2], in test [4], in test [5], in [6] and in test [7] was above 100 µM in each case. Moreover, the TGI in [8] is above 100 µM.

With `CCCOP1(=O)C=C(C)C(Cl)=C(C)C1` (stereo unspecified), the TGI is 32.4 µM in test [1]; above 100 µM in test [2]; above 100 µM in test [3]; 36.7 µM in test [4]; 63.9 µM in test [5]; 48.6 µM in [6]. Further, the TGI in test [7] turned out to be 28.5 µM; in test [8], 64.9 µM.

For the compound `N.N.NCCCCN.O=C([O-])CC(=O)[O-].O=C([O-])CC(=O)[O-].[Pt+4].[Pt+4]`, the GI50 in test [1] is 77.4 µM; in test [2], above 100 µM; in [3] it was 97.3 µM; in test [4], 57.3 µM; in [5] it was above 100 µM; in test [6], above 100 µM. Also, the results for the GI50 in test [7] and in test [8] were 18.2 µM and 52.8 µM, respectively. Besides, the TGI in test [1], in [2], in [3], in test [4], in test [5] and in test [6] was above 100 µM in each case. The figures for the TGI in test [7] and in test [8] were 62.5 µM and above 100 µM, respectively.

As to `COCC1N=C(c2ccc(OC)c(OCc3ccccc3)c2OC)O[C@H]1c1ccccc1` (stereo partly specified), the TGI was 51.5 µM in [1]; above 100 µM in test [2]; above 100 µM in [3]; 96.1 µM in test [4]; above 100 µM in test [5]; 42.4 µM in test [6]. Besides, the results for the TGI in test [7] and in test [8] were 69.3 µM and 23.3 µM, respectively.

On to `CC1=C2C(=CC(C)(CO)C2O)C(=O)C(C)(O)C12CC2` (stereo unspecified), for which the TGI worked out at 0.00784 µM in test [1]; 0.0147 µM in test [2]; 0.00903 µM in test [3]; 0.014 µM in [4]; 0.0233 µM in [5]; 0.0144 µM in test [6]. For the same compound, the TGI in test [7] came to 0.00421 µM; in [8], 0.0104 µM. Besides, the GI50 in test [7] was 0.00088 µM.

For the compound `N#C[C@]12CC3(CC[C@H]1CC1(C2)OCCO1)OCCO3`, the TGI in test [1], in test [2], in test [3], in test [4], in test [5] and in [7] was above 100 µM in each case. In test [8], this compound came in with a TGI above 100 µM.

Turning to `Nc1ccc(CCN2CCN(c3cccc(C(F)(F)F)c3)CC2)cc1`, the TGI in test [1], in test [2], in test [3], in [4], in [5] and in [6] was above 100 µM in each case. Also, the TGI in test [7] was above 100 µM; in test [8], 89.7 µM.

As to `CCC12CCC(O)C1N(C)CCC2Sc1ccccc1` (stereo unspecified), the TGI in test [1] is above 100 µM; in [2], above 100 µM; in test [3], 94.8 µM; in [4], above 100 µM; in test [5], above 100 µM; in test [6], 94.3 µM. Besides, the TGI in [7] and in [8] was above 100 µM in each case.

Turning to `C=CC[P@@]1(=O)O[C@H](c2ccccc2)C(C)N1C(C)C` (stereo partly specified), the TGI in test [1], in test [3], in test [4], in test [5] and in test [8] was above 100 µM in each case.

On to `COc1ccc(-c2nc3sccn3c2/C=C/C(=O)c2cc(OC)c(OC)c(OC)c2)cc1OC`, for which the GI50 in test [1] is 2.15 µM; in test [2], 2.58 µM; in [3], 2.72 µM; in [4], 3.36 µM; in test [5], 4.8 µM; in [7], 1.3 µM. Also, the GI50 in [8] was 2.07 µM. Also, the TGI is 5.55 µM in test [1]; 6.68 µM in test [2]; 4.79 µM in test [3]; 20.4 µM in [4]; above 100 µM in test [5]; 3.77 µM in [7]. This compound also yielded a TGI in [8] of 6.47 µM.
